# From patent US6337417B1, “N-phenyltetrahydrophthalamic acid derivatives, methods of producing same, and herbicides containing same as effective components” (Central Glass Co., Ltd., priority 1994, dated 2002)
# Experiments:
# Format in all cases: in vivo
# Parameters in all cases: key: 5: completely killed; 4: seriously injured; 3: considerably injured; 2: somewhat injured; 1: slightly injured; 0: not injured (normally grown)
# Conditions in all cases: 4 weeks after treatment
# broad-leaved weeds = test: Experiment 1 flooded soil treatment: broad-leaved weeds
# Description: (§1) Paddy soil (clay loam) was put into a pot so as to have a surface area of 1/15500 ares. Uniformly mixed seeds of several kinds of weeds, viz., nobie (barnyardgrass, Echinochloa spp.), broad-leaved weeds, hotarui (bulrush, Scirpus juncoides) and tamagayatsuri (small-flowered umbrellaplant, Cyperus difformis), were sown in the surface layer of the soil in each pot, and then paddy rice seedlings at the two- or three-leaved stage were transplanted into each pot to a depth of 2 cm, and water was fed into each pot so as to provide a 3 cm deep water layer on the soil surface. After 3 days, in other words at the initial stage of germination of nobie (barnyardgrass, Echinochloa spp.), a predetermined amount of a selected compound obtained in a manner analogous to Example 8 in the form of diluted aqueous solution was dropped into the water layer in each pot. After that, the pots were kept in a glass chamber to allow the paddy rice and the weeds to grow, and after the lapse of 4 weeks from the treatment with the selected compounds, the herbicidal effects and the degree of injury to the paddy rice were evaluated. In the table, the herbicidal effects and the degree of injury to the paddy rice are indicated by numerical values, which have the following meaning.
# (§2) 0: not injured (normally grown)
# [1] = test system: cockspur (Panicum crus-galli); test: Experiment 2 foliage treatment: cockspur
# Experimental: (§3) Upon seedling stage (two- or three-leaved stage) of rice, cockspur (Panicum crus-galli), garden radish, aobiyu (slender amaranth, Amaranthus viridis) and mehishiba (henry crabgrass, Digitaria cliaris) which were grown on a cultivated soil put in pots of 1/15500 ares, a selected compound obtained in a manner analogous to Example 8, in suspended wettable powder, was sprayed to each plant. After that, the pots were kept in a glass chamber to allow each plant to grow, and after the lapse of 4 weeks from the treatment with the selected compounds the herbicidal effects were evaluated. The evaluation of the herbicidal effects was similarly conducted as to that of Experiment 1.
# [2] = test system: aobiyu (slender amaranth, Amaranthus viridis); test: Experiment 2 foliage treatment: aobiyu
# Experimental: as §3
# [3] = test system: tamagayatsuri (small-flowered umbrellaplant, Cyperus difformis); test: Experiment 1 flooded soil treatment: tamagayatsuri
# Description: as §1, §2
# [4] = test system: mehishiba (henry crabgrass, Digitaria cliaris); test: Experiment 2 foliage treatment: mehishiba
# Experimental: as §3
# [5] = test system: hotarui (bulrush, Scirpus juncoides); test: Experiment 1 flooded soil treatment: hotarui
# Description: as §1, §2
# garden radish = test: Experiment 2 foliage treatment: garden radish
# Experimental: as §3
# [6] = test system: nobie (barnyardgrass, Echinochloa spp.); test: Experiment 1 flooded soil treatment: nobie
# Description: as §1, §2
# paddy rice = test: Experiment 1 flooded soil treatment: injury to paddy rice
# Description: as §1, §2
# rice = test: Experiment 2 foliage treatment: rice
# Experimental: as §3
Compound,Herbicidal Effect broad-leaved weed (broad-leaved weeds; 12.5 g/10a),Herbicidal Effect broad-leaved weed (broad-leaved weeds; 25 g/10a),Herbicidal Effect cockspur ([1]; 40 g/10a),Herbicidal Effect cockspur ([1]; 80 g/10a),Herbicidal Effect aobiyu ([2]; 40 g/10a),Herbicidal Effect aobiyu ([2]; 80 g/10a),Herbicidal Effect tamagayatsuri ([3]; 12.5 g/10a),Herbicidal Effect tamagayatsuri ([3]; 25 g/10a),Herbicidal Effect mehishiba ([4]; 40 g/10a),Herbicidal Effect mehishiba ([4]; 80 g/10a),Herbicidal Effect hotarui ([5]; 12.5 g/10a),Herbicidal Effect hotarui ([5]; 25 g/10a),Herbicidal Effect garden radish (garden radish; 40 g/10a),Herbicidal Effect garden radish (garden radish; 80 g/10a),Herbicidal Effect nobie ([6]; 12.5 g/10a),Herbicidal Effect nobie ([6]; 25 g/10a),Injury of Paddy (paddy rice; 12.5 g/10a),Injury of Paddy (paddy rice; 25 g/10a),Herbicidal Effect rice (rice; 40 g/10a),Herbicidal Effect rice (rice; 80 g/10a)
CCOC(=O)C1=C(C(=O)N(C(C)=O)c2cc(SCC(=O)OC)c(Cl)cc2F)CCCC1 [Compound No. 12],5,5,1,1,5,5,5,5,1,1,4,5,5,5,5,5,0.5,0.5,1,1
C#CCOC(=O)C1=C(C(=O)N(C(C)=O)c2cc(SCC(=O)OC)c(Cl)cc2F)CCCC1 [compound 15],5,5,1,1,4.5,5,4,5,1,1,4,4,5,5,5,5,0,0.5,1,1
CCC(=O)N(C(=O)C1=C(C(=O)OC)CCCC1)c1cc(SCC(=O)OC)c(Cl)cc1F [compound 16],5,5,1,1,5,5,5,5,1,1,5,5,5,5,5,5,0.5,0.5,1,1
CCCCCOC(=O)C1=C(C(=O)N(C(=O)CC)c2cc(SCC(=O)OC)c(Cl)cc2F)CCCC1 [compound 17],5,5,2,2,5,5,5,5,1,1,4,5,5,5,5,5,0,0.5,1,1
COC(=O)CSc1cc(N(C(=O)C2=C(C(=O)OC)CCCC2)C(=O)c2cccc(F)c2)c(F)cc1Cl [compound 19],5,5,1,1,5,5,5,5,1,1,5,5,4,5,5,5,0,0.5,1,1
